Holding throughout (type): in vivo
One test relates to CYPERUS IRIA. Description: Preemergence weed control under flooded paddy conditions, CYPIR (Rice Flatsedge). The note with it: 0.500 kg/ha, preemergence, 3-4 weeks after treatment. The gist of the method:
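This preemergence test mimicked flooded paddy conditions: rice flatsedge propagules were sown in the upper 0.5 cm of silt loam in undrained 32 oz. containers (10.5 cm diameter), with water held 1.5 to 3 cm over the soil. After normal greenhouse care, plants were scored 0-9 for stand, vigor, malformation, size, chlorosis and appearance relative to controls.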

In another test the test system is CHENOPODIUM ALBUM, L. Description: Preemergence herbicidal evaluation, CHEAL (Lambsquarters, Common). The settings on record: rated four to five weeks after treatment. The method, boiled down:
(§1)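 Preemergence, greenhouse: seed + potting soil sown on ~1 inch soil in cups; aqueous acetone spray, ~0.125–0.50 kg/ha equivalent; rated 0-9 vs control at 4–5 wk.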

In test [1] the test system is CYPERUS SEROTINUS, ROTTB. Description: Preemergence weed control under flooded paddy conditions, CYPSE (Flatsedge). The note with it: 0.500 kg/ha, preemergence, 3-4 weeks after treatment. The gist of the method:
(§2)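 Visual 0-9 score (stand, vigor, malformation, size, chlorosis, appearance vs untreated control) taken 3-4 wk after treatment. Test compounds were added into flood water (1.5-3 cm over silt loam) as 50/50 v/v aqueous/acetone, equivalent to about 0.5-0.063 kg/ha a.i.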

The subject of the next test is SAGITTARIA PYGMAEA, L. Description: Preemergence weed control under flooded paddy conditions, SAGPY (Arrowhead (Pygmaea)). The note with it: 0.500 kg/ha, preemergence, 3-4 weeks after treatment. The method, boiled down: as §2
A further test deals with CASSIA OBTUSIFOLIA, L. Description: Preemergence herbicidal evaluation, CASOB (Sicklepod). The note with it: rated four to five weeks after treatment. The gist of the method:
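Preemergence herbicidal activity against sicklepod was assessed by planting seed mixed with potting soil atop about one inch of soil in pint cups. After treatment the cups were watered and handled per standard greenhouse practice. Tests ended four to five weeks later, with plant stand, vigor, malformation, size, chlorosis and overall appearance scored 0-9 relative to a control.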

The test system of test [2] is TRITICUM AESTIVUM, CV. APOLLO. Description: Preemergence herbicidal evaluation, TRZAWO (Wheat, Winter, CV. APOLLO). The note with it: rated four to five weeks after treatment. The method, boiled down: as §1
Test [3] relates to GLYCINE MAX(L) MERR. CV. WILLIAMS
Description: Preemergence herbicidal evaluation, GLXMAW (Soybean, Williams). The settings on record: rated four to five weeks after treatment. The method, boiled down: as §1

Test [4] has as its system ECHINOCHLOA ORYZOIDES (ARD.)FRITSCH. Description: Preemergence weed control under flooded paddy conditions, ECHORC (Watergrass (Calif.)). The note with it: 0.500 kg/ha, preemergence, 3-4 weeks after treatment. The method, boiled down:
as §2

A further test concerns ZEA MAYS L. Description: Preemergence herbicidal evaluation, ZEAMX (Corn, Field). The note with it: rated four to five weeks after treatment. The gist of the method: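 Preemergence herbicidal activity on field corn: seeds in potting soil were sown atop roughly one inch of soil in separate pint cups, treated, and grown under standard greenhouse care. Four to five weeks post-treatment, stand, vigor, malformation, size, chlorosis and overall appearance were compared with a control and scored 0-9.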

Test [5] deals with ABUTILON THEOPHRASTI, MEDIC. Description: Preemergence herbicidal evaluation, ABUTH (Velvetleaf). The note with it: rated four to five weeks after treatment. The gist of the method:
as §1

Another test relates to […], PRESL. Description: Preemergence weed control under flooded paddy conditions, MOOVA (Monochoria). The settings on record: 0.500 kg/ha, preemergence, 3-4 weeks after treatment. The gist of the method:
as §2

For another test, the system named is GALIUM APARINE. Description: Preemergence herbicidal evaluation, GALAP (Galium). The settings on record: Rate 0.500 kg/ha, rated four to five weeks after treatment. The method, boiled down:
as §1

The test system of test [6] is GLYCINE MAX(L) MERR. CV. WILLIAMS
Description: Postemergence herbicidal evaluation, GLXMAW (Soybean, Williams). Details: key to GLXMAW rating / Herbicidal effect rating, GLXMAW / GLXMAW: 0-9 visual rating scale vs untreated control. The settings on record: Rate 0.500 kg/ha. The gist of the method: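 Herbicidal injury to Williams soybean was assessed after a postemergence spray of two-week-old seedlings grown in jiffy flats. Compounds were dispersed in an acetone/water (50/50) mixture with 0.5% TWEEN®20 surfactant and applied at 40 psi. After four to five weeks in the greenhouse, stand, vigor, malformation, size and chlorosis were compared against a control on a 0-9 scale, and results from replicate tests were averaged.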

The subject of test [7] is ORYZA SATIVA, L. TEBONNET
Description: Postemergence herbicidal evaluation, ORYSAT (Rice, Tebonnet). The note with it: Rate 0.500 kg/ha. The arrangement: key: 0-9 visual rating scale vs untreated control. The method, boiled down:
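This postemergence greenhouse test used Oryza sativa cv. Tebonnet seedlings grown about two weeks in jiffy flats. Test material in 50/50 acetone/water with 0.5% TWEEN®20 surfactant was applied through a spray nozzle at 40 psi. Four to five weeks later, stand, vigor, malformation, size, chlorosis and overall appearance were rated 0-9 relative to a control, and repeat tests were averaged.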

On to `COC(=O)Cn1c(=O)n(C)c(=O)n(-c2cc(Oc3ccc(SC)cc3Cl)ccc2[N+](=O)[O-])c1=O` [Compound 34, Methyl 3-{5-[2-chloro-4-(methylthio)-phenoxy]-2-nitrophenyl}tetrahydro-5-methyl-2,4,6-trioxo-s-triazine-1(2H)-acetate], for which, in the test on CYPERUS IRIA, the “Herbicidal effect rating, CYPIR” value worked out at 0.0. For the same molecule, the CHEAL herbicidal rating worked out at 0.0 with CHENOPODIUM ALBUM, L. (Rate 0.125 kg/ha); 0.0 in the test with CHENOPODIUM ALBUM, L. (Rate 0.250 kg/ha); 0.0 in the test with CHENOPODIUM ALBUM, L. (Rate 0.500 kg/ha). Besides, in [1], the “Herbicidal effect rating, CYPSE” value is recorded as 0.0. Also, the “Herbicidal effect rating, SAGPY” value in the test on SAGITTARIA PYGMAEA, L. is recorded as 0.0. The CASOB herbicidal rating stood at 0.0 in the test with CASSIA OBTUSIFOLIA, L. (Rate 0.125 kg/ha); 0.0 in the test with CASSIA OBTUSIFOLIA, L. (Rate 0.250 kg/ha); 0.0 in the test on CASSIA OBTUSIFOLIA, L. (Rate 0.500 kg/ha). Moreover, the TRZAWO herbicidal rating in test [2] (Rate 0.125 kg/ha), in test [2] (Rate 0.250 kg/ha) and in [2] (Rate 0.500 kg/ha) was 0.0 in each case. The GLXMAW herbicidal rating in test [3] (Rate 0.125 kg/ha), in [3] (Rate 0.250 kg/ha) and in test [3] (Rate 0.500 kg/ha) was 0.0 each time. Further, in [4], the “Herbicidal effect rating, ECHORC” value is listed as 0.0. For the same molecule, the ZEAMX herbicidal rating in the test with ZEA MAYS L. (Rate 0.125 kg/ha), in the test with ZEA MAYS L. (Rate 0.250 kg/ha) and in the test with ZEA MAYS L. (Rate 0.500 kg/ha) was 0.0 in each case. In addition, the ABUTH herbicidal rating in test [5] (Rate 0.125 kg/ha), in test [5] (Rate 0.250 kg/ha) and in [5] (Rate 0.500 kg/ha) was 0.0 in each case. Further, the “Herbicidal effect rating, MOOVA” value in test […], PRESL. turned out to be 0.0.

Turning to `COC(=O)Cn1c(=O)n(C)c(=O)n(-c2cc(Oc3cc(Cl)cc(Cl)c3)ccc2[N+](=O)[O-])c1=O` [Compound 35, Methyl 3-[5-(3,5-dichlorophenoxy)-2-nitrophenyl]tetrahydro-5-methyl-2,4,6-trioxo-s-triazine-1(2H)-acetate], the “Herbicidal effect rating, CYPIR” value in the test on CYPERUS IRIA is reported as 0.0. The CHEAL herbicidal rating in the test on CHENOPODIUM ALBUM, L. (Rate 0.500 kg/ha) was determined as 0.0. Also, the “Herbicidal effect rating, CYPSE” value in test [1] was determined as 0.0. Moreover, in the test with SAGITTARIA PYGMAEA, L., the “Herbicidal effect rating, SAGPY” value is given as 0.0. The CASOB herbicidal rating in the test with CASSIA OBTUSIFOLIA, L. (Rate 0.500 kg/ha) is listed as 0.0. Also, the TRZAWO herbicidal rating in test [2] (Rate 0.500 kg/ha) is 0.0. Besides, in test [3] (Rate 0.500 kg/ha), the GLXMAW herbicidal rating was 1.0. Besides, the “Herbicidal effect rating, ECHORC” value in test [4] came out at 0.0. This molecule gave a ZEAMX herbicidal rating in the test with ZEA MAYS L. (Rate 0.500 kg/ha) of 0.0. Further, the ABUTH herbicidal rating in test [5] (Rate 0.500 kg/ha) amounted to 0.0. The molecule also yielded a GALAP herbicidal rating in the test on GALIUM APARINE of 0.0. Further, the “Herbicidal effect rating, MOOVA” value in test […], PRESL. amounted to 0.0.

For `COC(=O)Cn1c(=O)n(C)c(=O)n(-c2cc(Oc3ccccn3)ccc2[N+](=O)[O-])c1=O` [Compound 38, Methyl tetrahydro-3-methyl-5-[2-nitro-5-(2-pyridyloxy)phenyl]-2,4,6-trioxo-s-triazine-1(2H)-acetate], the GLXMAW rating in test [6] came out at 0.5. Also, the “Herbicidal effect rating, CYPIR” value in the test with CYPERUS IRIA is listed as 0.0. This molecule yielded a CHEAL herbicidal rating in the test on CHENOPODIUM ALBUM, L. (Rate 0.500 kg/ha) of 0.0. Besides, the “Herbicidal effect rating, CYPSE” value in [1] is 0.0. For the same molecule, in the test with SAGITTARIA PYGMAEA, L., the “Herbicidal effect rating, SAGPY” value came out at 0.0. This molecule came in with a CASOB herbicidal rating in the test with CASSIA OBTUSIFOLIA, L. (Rate 0.500 kg/ha) of 0.0. In test [2] (Rate 0.500 kg/ha), this molecule returned a TRZAWO herbicidal rating of 1.0. In test [3] (Rate 0.500 kg/ha), this molecule came in with a GLXMAW herbicidal rating of 1.0. The “Herbicidal effect rating, ECHORC” value in test [4] amounted to 0.0. Further, the ZEAMX herbicidal rating in the test with ZEA MAYS L. (Rate 0.500 kg/ha) turned out to be 2.0. Further, in test [5] (Rate 0.500 kg/ha), the ABUTH herbicidal rating is reported as 0.0. The ORYSAT rating in test [7] turned out to be 0.0. Moreover, the GALAP herbicidal rating in the test with GALIUM APARINE stood at 0.0. In addition, the “Herbicidal effect rating, MOOVA” value in test […], PRESL. came out at 0.0.

The record behind these values is EP0745595A1, “3-(3-Aryloxyphenyl)-1-(substituted methyl)-s-triazine-2,4,6-oxo or thiotrione herbicidal agents” (American Cyanamid Company, priority 1995, dated 1996).
